According to ChEMBL document CHEMBL1629662, “Antimicrobial activity of prulifloxacin tested against a worldwide collection of gastroenteritis-producing pathogens, including those causing traveler's diarrhea” (2009):

Assays:
Salmonella typhimurium = experiment: Antibacterial activity against Salmonella enterica serovar Typhimurium by broth microdilution method in presence of sulfamethoxazolee
Campylobacter jejuni = experiment: Antibacterial activity against Campylobacter jejuni by broth microdilution method in presence of sulfamethoxazole
Vibrio parahaemolyticus = experiment: Antibacterial activity against Vibrio parahaemolyticus by broth microdilution methods in presence of sulfamethoxazole
Vibrio alginolyticus = experiment: Antibacterial activity against Vibrio alginolyticus by broth microdilution methods in presence of sulfamethoxazole
[1] = Antibacterial activity against Salmonella enterica serovar Newport by broth microdilution method in presence of sulfamethoxazole
Vibrio cholerae = experiment: microbe, parasite or virus in culture
Salmonella typhi = experiment: Antibacterial activity against Salmonella enterica serovar Typhi by broth microdilution method in presence of sulfamethoxazolee
Salmonella enteritidis = experiment: Antibacterial activity against Salmonella enterica serovar Enteritidis by broth microdilution method in presence of sulfamethoxazolee
Aeromonas caviae = experiment: Antibacterial activity against Aeromonas caviae by broth microdilution methods in presence of sulfamethoxazole
Salmonella paratyphi = experiment: Antibacterial activity against Salmonella enterica serovar Paratyphi by broth microdilution method in presence of sulfamethoxazolee
Vibrio vulnificus = experiment: Antibacterial activity against Vibrio vulnificus by broth microdilution method in presence of sulfamethoxazole
[2] = Antibacterial activity against Salmonella enterica serovar Virchow by broth microdilution method in presence of sulfamethoxazole
Campylobacter coli = experiment: Antibacterial activity against Campylobacter coli by broth microdilution method in presence of sulfamethoxazole
Escherichia coli = experiment: Antibacterial activity against Escherichia coli by broth microdilution methods in presence of sulfamethoxazolee
Shigella boydii = experiment: Antibacterial activity against Shigella boydii by broth microdilution methods in presence of sulfamethoxazole
Shigella dysenteriae = experiment: Antibacterial activity against Shigella dysenteriae by broth microdilution methods in presence of sulfamethoxazole
Aeromonas veronii = experiment: Antibacterial activity against Aeromonas veronii by broth microdilution methods in presence of sulfamethoxazole
Aeromonas sobria = experiment: Antibacterial activity against Aeromonas sobria by broth microdilution methods in presence of sulfamethoxazole
Vibrio sp. = experiment: Antibacterial activity against Vibrio sp. by broth microdilution method in presence of sulfamethoxazole
[3] = Antibacterial activity against Salmonella enterica serovar Heidelberg by broth microdilution method in presence of sulfamethoxazole
Vibrio fluvialis = experiment: Antibacterial activity against Vibrio fluvialis by broth microdilution method in presence of sulfamethoxazole
Plesiomonas shigelloides = experiment: Antibacterial activity against Plesiomonas shigelloides by broth microdilution method in presence of sulfamethoxazole
Shigella sonnei = experiment: Antibacterial activity against Shigella sonnei by broth microdilution method in presence of sulfamethoxazole
Yersinia enterocolitica = experiment: Antibacterial activity against Yersinia enterocolitica by broth microdilution methods in presence of sulfamethoxazole
Aeromonas hydrophila = experiment: Antibacterial activity against Aeromonas hydrophila by broth microdilution methods in presence of sulfamethoxazole
[4] = test system: Yersinia pseudotuberculosis; experiment: Antibacterial activity against Yersinia pseudotuberculosis by broth microdilution methods in presence of sulfamethoxazole
Shigella flexneri = experiment: Antibacterial activity against Shigella flexneri by broth microdilution method in presence of sulfamethoxazole

COc1cc(Cc2cnc(N)nc2N)cc(OC)c1OC [TRIMETHOPRIM]
8 µg/mL: MIC90 (Campylobacter jejuni) | MIC90 (Aeromonas caviae) | MIC90 (Campylobacter coli) | MIC90 (Aeromonas veronii) | MIC90 (Aeromonas sobria) | MIC90 (Aeromonas hydrophila)
≤ 0.5 µg/mL: MIC50 (Salmonella typhimurium) | MIC90 (Salmonella typhimurium) | MIC50 (Vibrio parahaemolyticus) | MIC90 (Vibrio parahaemolyticus) | MIC50 (Vibrio alginolyticus) | MIC90 (Vibrio alginolyticus) | MIC50 [1] | MIC90 [1] | MIC50 (Vibrio cholerae) | MIC90 (Vibrio cholerae) | MIC50 (Salmonella typhi) | MIC90 (Salmonella typhi) | MIC50 (Salmonella enteritidis) | MIC90 (Salmonella enteritidis) | MIC50 (Aeromonas caviae) | MIC50 (Salmonella paratyphi) | MIC90 (Salmonella paratyphi) | MIC50 (Vibrio vulnificus) | MIC90 (Vibrio vulnificus) | MIC50 [2] | MIC90 [2] | MIC50 (Escherichia coli) | MIC50 (Aeromonas veronii) | MIC50 (Aeromonas sobria) | MIC50 (Vibrio sp.) | MIC90 (Vibrio sp.) | MIC50 [3] | MIC90 [3] | MIC50 (Vibrio fluvialis) | MIC90 (Vibrio fluvialis) | MIC (Plesiomonas shigelloides) | MIC50 (Plesiomonas shigelloides) | MIC50 (Yersinia enterocolitica) | MIC50 (Aeromonas hydrophila) | MIC50 [4]
> 64 µg/mL: MIC90 (Escherichia coli) | MIC50 (Shigella boydii) | MIC90 (Shigella boydii) | MIC50 (Shigella dysenteriae) | MIC90 (Shigella dysenteriae) | MIC50 (Shigella sonnei) | MIC90 (Shigella sonnei) | MIC50 (Shigella flexneri) | MIC90 (Shigella flexneri)
2 µg/mL: MIC50 (Campylobacter jejuni) | MIC50 (Campylobacter coli)
